In US4513009A, “Aminoacid derivatives and their therapeutic applications” (priority 1980, dated 1985):
Like-named read-outs stand apart in the source and are kept apart here. Each block holds one compound with its values, some of them ahead of it.

What was measured:
[1] = target: enkephalinase (enkephalin dipeptidylcarboxypeptidase); test: Determination of enkephalinasic (enkephalin dipeptidylcarboxypeptidasic) activity and effect of inhibitors, striatal membrane fraction, 3H-leucine-enkephalin; type: biochemical, rats or mice; details: 10 nM leucine-enkephalin 3H, 25° C., pH 7.4, 15 mn, read-out: 50% inhibitory concentration
Procedure: Determination of the "enkephalinasic" (enkephalin dipeptidylcarboxypeptidasic) activity and determination of the effect of inhibitors.
The enzyme preparation used is a membrane fraction from the striatum of rats or mice.
This fraction is obtained by homogenization at 4° C. in 20 volumes Tris-HCl buffer 0.05M (pH 7.4) followed by two successive centrifugations (1000 g×min. and 200,000 g×min.) at the end of which the sediment of the second centrifugation is retained. It is washed by re-suspension in 10 ml of the buffer followed by centrifugation (200,000 g×min) and the resulting sediment is in turn washed superficially to complete the removal of the soluble enzymes. The resulting membrane fraction is taken up into the buffer at 4° C., to obtain a suspension comprising about 1.5 mg proteins per ml.
An aliquot sample (50 μl) of the membrane suspension is then incubated in a final volume of 100 μl at 25° C. in the presence of 10 nM leucine-enkephalin ^3 H (39 Ci/mmole), previously purified by column chromatography over Porapak Q (100-120 mesh, Waters Assoc.) and […] puromycine, an aminopeptidase inhibitor. Incubation time is generally set at 15 mn. in order to determine the initial rate of the formation of tripeptide Tyr-Gly-Gly-^3 H characteristic of the enkephalin dipeptidylcarboxypeptidasic (enkephalinasic) activity.
Determination of the radioactivity of the tripeptide is effected by liquid scintillation spectrometry. […]

[2] = system: licking reflex of mice on a plate heated at 55° C.; test: Hot-plate test (55° C.): specific antalgic effect; type: in vivo; details: intravenous; for ED50: Mus musculus, hot plate 55° C.
Procedure: (§1) Licking reflex of mice on a plate heated at 55° C. according to the method of Jacob. and co-workers (Arch. Int. Pharmacodyn. 122, 287-300, 1959: 133, 296-300, 1961).
(b) Specific antalgic effect

[3] = system: phenylbenzoquinone-induced pain; test: Phenylbenzoquinone or writhing test; type: in vivo; details: 0.7 mg/kg i.v.; vs controls p<0.01
Text: 3--Phenylbenzoquinone or "writhing test" according to the method of SIEGMUND and co-workers (Proc. Soc. Expert. Biol. Med. 1957, 95, 729-731).

blood-pressure = test: Hypotensive activity; type: in vivo, dogs; details: Canis lupus familiaris; intravenous administration; read-out: lowest dosage producing a decrease of the blood-pressure
Text: enkephalin-potentiating activity, (LAUBIE M., SCHMITT H., VINCENT M., REMON D. Central cardiovascular effects of Morphinometric peptids in dogs. European Journal of Pharmacology, Vol. 46, 67-71, 1977).

Tail of the mice = details: for potentiation of D Ala2 Met Enkephalin: compound i.v. 100 mg/kg, D Ala2 Met Enkephalin 15 minutes later, ivt, 10 to 30γ/mouse; for specific antalgic effect (tail withdrawal): i.v. 100 mg/kg
[4] = system: licking reflex of mice on a plate heated at 55° C.; test: Hot-plate test (55° C.): potentiation of the antalgic effect of D Ala2 Met Enkephalin and Naloxone antagonism; type: in vivo; details: for % Increase of the licking time with respect to the animals treated with D Ala2 Met Enkephalin (1): dosage 10 α/mouse; for Potentiation of the effect of a subactive dosage of D Ala2 Met Enkephalin: 0.3γ D Ala2 Met Enkephalin
Procedure: as §1
(a) Potentiation of the antalgic effect of D Ala2 Met Enkephalin
(α) By the intraventricular route (ivt)
(β) By the intravenous route

[5] = ivt, + D Ala2 Met Enkephalin 0.3 α/mouse

IC50 [1]: 0.26 µM
Compound: CC(=O)SCC(Cc1ccccc1)C(=O)NCC(=O)OCc1ccc(F)cc1 (stereo not shown) [Compound 54, N-[3-Acetylthio-2-benzylpropanoyl]glycine(p.fluoro)-benzylester]
ED50 [2]: 3 mg/kg
antalgic effect in the hot (55° C.) plate test [2]: have an antalgic effect
protection from phenylbenzoquinone-induced pain [3]: protect the treated animals from phenylbenzoquinone-induced pain, with a significant difference with respect to the controls, p<0.01

IC50 [1]: 5 µM
Compound: CC(C)C[C@H](NC(=O)[C@H](Cc1ccccc1)SC(=O)c1ccccc1)C(=O)O [Compound 27, N-[(S)-2-benzoylthio-3-phenyl-propionyl]-L.leucine]

IC50 [1]: 0.1 µM
Compound: C[C@H](NC(=O)[C@@H](S)Cc1ccccc1)C(=O)O [Compound 32, N-[(S)-2-mercapto-3-phenyl-propionyl]-L.alanine]

IC50 [1]: 1 µM
Compound: CC(=O)SCS[C@@H](Cc1ccccc1)C(=O)N[C@@H](CC(C)C)C(=O)O [Compound 33, N-[(S)-2-acetylthiomethylthio-3-phenyl-propionyl]-L.leucine]

Compound: CC(C)C[C@H](NC(=O)C(CS)Cc1ccccc1)C(=O)O (stereo partly drawn) [Compound 18, N[(R,S)3-mercapto-2-benzyl-propionyl]-L.leucine]
minimal effective dose (blood-pressure): 0.3 mg/kg
Increase reaction time (%) (Tail of the mice; 100 mg/kg i.v. + D Ala2 Met Enkephalin (30 γ ivt), 20 mn): 0%
Increase reaction time (%) (Tail of the mice; 100 mg/kg i.v. + D Ala2 Met Enkephalin (30 γ ivt), 45 mn): 280%
Increase reaction time (%) (Tail of the mice; 100 mg/kg i.v. + D Ala2 Met Enkephalin (30 γ ivt), 60 mn): 166%
Increase reaction time (%) (Tail of the mice; 100 mg/kg i.v. + D Ala2 Met Enkephalin (30 γ ivt), 90 mn): 87%
Increase reaction time (%) (Tail of the mice; 100 mg/kg i.v. + D Ala2 Met Enkephalin (30 γ ivt), 120 mn): 174%
Increase reaction time (%) (Tail of the mice; 100 mg/kg i.v. alone, 20 mn): 38%
Increase reaction time (%) (Tail of the mice; 100 mg/kg i.v. alone, 45 mn): 80%
Increase reaction time (%) (Tail of the mice; 100 mg/kg i.v. alone, 60 mn): 120%
Increase reaction time (%) (Tail of the mice; 100 mg/kg i.v. alone, 90 mn): 61%
Increase reaction time (%) (Tail of the mice; 100 mg/kg i.v. alone, 120 mn): 90%
potentiation of D Ala2 Met Enkephalin (Tail of the mice): potentiate most significantly
specific antalgic effect (tail withdrawal) (Tail of the mice): exhibit a specific antalgic affect

Compound: O=C(O)CNC(=O)C(CS)Cc1ccccc1 (racemic) [Compound 20, N-[(R,S)-3-mercapto-2-benzyl-propionyl]glycine]
IC50 [1]: 0.005 µM
Increase reaction time (%) (Tail of the mice; 30 mg/kg i.v. + D Ala2 Met Enkephalin (15 γ ivt), 20 mn): 247%
Increase reaction time (%) (Tail of the mice; 30 mg/kg i.v. + D Ala2 Met Enkephalin (15 γ ivt), 45 mn): 353%
Increase reaction time (%) (Tail of the mice; 30 mg/kg i.v. + D Ala2 Met Enkephalin (15 γ ivt), 60 mn): 283%
Increase reaction time (%) (Tail of the mice; 30 mg/kg i.v. + D Ala2 Met Enkephalin (15 γ ivt), 90 mn): 210%
Increase reaction time (%) (Tail of the mice; 30 mg/kg i.v. + D Ala2 Met Enkephalin (15 γ ivt), 120 mn): 203%
Increase reaction time (%) (Tail of the mice; 100 mg/kg i.v. + D Ala2 Met Enkephalin (15 γ ivt), 20 mn): 239%
Increase reaction time (%) (Tail of the mice; 100 mg/kg i.v. + D Ala2 Met Enkephalin (15 γ ivt), 45 mn): 528%
Increase reaction time (%) (Tail of the mice; 100 mg/kg i.v. + D Ala2 Met Enkephalin (15 γ ivt), 60 mn): 321%
Increase reaction time (%) (Tail of the mice; 100 mg/kg i.v. + D Ala2 Met Enkephalin (15 γ ivt), 90 mn): 382%
Increase reaction time (%) (Tail of the mice; 100 mg/kg i.v. + D Ala2 Met Enkephalin (15 γ ivt), 120 mn): 322%
Increase reaction time (%) (Tail of the mice; 100 mg/kg i.v. alone, 20 mn): 59%
Increase reaction time (%) (Tail of the mice; 100 mg/kg i.v. alone, 45 mn): 196%
Increase reaction time (%) (Tail of the mice; 100 mg/kg i.v. alone, 60 mn): 150%
Increase reaction time (%) (Tail of the mice; 100 mg/kg i.v. alone, 90 mn): 88%
Increase reaction time (%) (Tail of the mice; 100 mg/kg i.v. alone, 120 mn): 85%
potentiation of D Ala2 Met Enkephalin (Tail of the mice): potentiate most significantly
specific antalgic effect (tail withdrawal) (Tail of the mice): exhibit a specific antalgic affect

IC50 [1]: 0.004 µM
Compound: O=C(N[C@@H](COCc1ccccc1)C(=O)O)C(CS)Cc1ccccc1 (stereo partly drawn) [Compound 24, O-Benzyl-N-[(R,S)-3-mercapto-2-benzyl-propionyl]L.serine]
minimal effective dose (blood-pressure): 0.3 mg/kg

IC50 [1]: 0.0078 µM
Compound: O=C(CNC(=O)C(CS)Cc1ccccc1)OCc1ccccc1 (stereo not shown) [Compound 57, N-[3-Mercapto-2-benzyl-propanoyl]glycine benzyl ester]

IC50 [1]: 0.03 µM
Compound: O=C(CNC(=O)C(CS)Cc1ccccc1)NCc1ccccc1 (stereo not shown) [Compound 60, N-[3-Mercapto-2-benzyl-propanoyl]glycine benzylamide]

Compound: COC(=O)CNC(=O)C(CSC(C)=O)Cc1ccccc1 (racemic) [Compound 19, N-[(RS)-3-acetylthio-2-benzyl-propionyl]glycine methyl ester]
ED50 [2]: 30 mg/kg
antalgic effect in the hot (55° C.) plate test [2]: have an antalgic effect

Compound: CC(C)C[C@H](NC(=O)[C@H](Cc1ccccc1)SCCS)C(=O)O [Compound 35, N-[(S)-2-mercapto-ethylthio-3-phenyl-propionyl]-L.leucine]
IC50 [1]: 0.4 µM
increase of the licking time with respect to the animals treated with D Ala2 Met Enkephalin ([4]; compound i.v. 100 mg/kg, D Ala2 Met Enkephalin 0.3γ intraventricular): 100%
% Increase of the licking time with respect to the animals treated with D Ala2 Met Enkephalin (1) [4, 5]: 240%
% Increase of the licking time with respect to the animals treated with D Ala2 Met Enkephalin (1) ([4]; ivt, + D Ala2 Met Enkephalin 0.3 α/mouse + Naloxone 10 mg/kg s.c.): 18%
Potentiation of the effect of a subactive dosage of D Ala2 Met Enkephalin ([4]; ivt): significantly potentiated (p≤0.05)

IC50 [1]: 0.4 µM
Compound: CC(=O)SCC(Cc1ccccc1)C(=O)NCC(=O)NCc1ccccc1 (stereo not shown) [Compound 56, N-[3-Acetylthio-2-benzylpropanoyl]glycine benzylamide]

Compound: D Ala2 Met Enkephalin [reference compound]
activity of D Ala2 Met Enkephalin per se ([4]; 0.3 α/mouse, ivt): inactive per se

Compound: CC(C)C[C@H](NC(=O)[C@H](Cc1ccccc1)NCC(=O)O)C(=O)O [Compound 2, N-(carboxy-methyl)L.phenylalanine-L.leucine]
IC50 [1]: 1.5 µM
% Increase of the licking time with respect to the animals treated with D Ala2 Met Enkephalin (1) [4, 5]: 274%
Potentiation of the effect of a subactive dosage of D Ala2 Met Enkephalin ([4]; ivt): significantly potentiated (p≤0.05)

Compound: COC(=O)[C@H](CC(C)C)NC(=O)[C@H](Cc1ccccc1)SC(C)=O [Compound 29, N-[(S)-2-acetylthio-3-phenyl-propionyl]-L.leucine methyl ester]
% Increase of the licking time with respect to the animals treated with D Ala2 Met Enkephalin (1) [4, 5]: 207%
Potentiation of the effect of a subactive dosage of D Ala2 Met Enkephalin ([4]; ivt): significantly potentiated (p≤0.05)

IC50 [1]: 20 µM
Compound: CC(C)C[C@H](NC(=O)[C@@H](Cc1ccccc1)NCC(=O)O)C(=O)O [Compound 5, N-(carboxy-methyl)-D.phenylalanine-L.leucine]

Compound: C=CCN1CC[C@]23c4c5ccc(O)c4O[C@H]2C(=O)CC[C@@]3(O)[C@H]1C5 [Naloxone, reference compound]
antagonism of the potentiated antalgic effect by Naloxone ([4]; ivt, compounds + D Ala2 Met Enkephalin): this effect is antagonized by Naloxone

IC50 [1]: 0.35 µM
Compound: CC(=O)SCC(Cc1ccccc1)C(=O)NCC(=O)OCC(F)(F)F (stereo not shown) [Compound 55, N-[3-Acetylthio-2-benzylpropanoyl]-glycine-2,2,2-trifluoroethyl ester]

Compound: CC(C)C[C@H](NC(=O)[C@@H](S)Cc1ccccc1)C(=O)O [Compound 28, N-[(S)-2-mercapto-3-phenyl-propionyl]-L.leucine]
% Increase of the licking time with respect to the animals treated with D Ala2 Met Enkephalin (1) [4, 5]: 400%
Potentiation of the effect of a subactive dosage of D Ala2 Met Enkephalin ([4]; ivt): significantly potentiated (p≤0.05)
